Measurements taken from PMC3706879, “The neurotrophic compound J147 reverses cognitive impairment in aged Alzheimer's disease mice” (Alzheimer's Research & Therapy, 2013).

Experiments:
Aβ1-40 and Aβ1-42 = test: Aβ ELISA of hippocampus of aged huAPP/PS1 mice; type: in vivo; conditions: three months J147
Method: The APPswe/PS1ΔE9 transgenic mice have been previously characterized. The line 85 mice carry two transgenes, the mouse/human chimeric APP/Swe, linked to Swedish FAD and human PS1ΔE9. At 20 months of age both male and female transgenic mice were fed a high fat diet (Harlan Tekland, Madison, WI, USA) with and without J147 (200 ppm, 10 mg/kg/day). Treatment continued for three months and was followed by behavior testing and sacrifice of mice for tissue harvesting. […] (Data not shown).
Hippocampal and entorhinal cortex tissue samples were homogenized in 10 volumes of RIPA lysis buffer (50 mM Tris, pH 7.5, 150 mM NaCl, 0.1% sodium dodecyl sulfate and 0.5% deoxycholate, and 1% NP40) containing a cocktail of protease and phosphatase inhibitors ([…] each of pepstatin A, aprotinin, phosphoramidon, and leupeptin; 0.5 mM 4-(2-aminoethyl) benzenesulfonyl fluoride hydrochloride; 1 mM EGTA; 5 mM fenvalerate; and 5 mM cantharidin). Samples were sonicated (2 × 10 s) and centrifuged at 100,000 × g for 60 minutes at 4°C. Protein concentrations in the cell extracts were determined using the BCA protein assay (Pierce supplied by Thermo Fisher Scientific, Rockford, IL, USA). Equal amounts of protein were solubilized in 2.5x SDS-sample buffer, separated on 12% SDS-polyacrylamide gels, transferred to Immobulin P and immunoblotted with the antibodies indicated in the Materials section. For Western blots, protein levels were normalized to actin levels. An unpaired t test was performed to compare between two groups at a single time point. When comparing multiple groups, one-way ANOVA followed by a Tukey's post hoc test was used. All statistical analysis was conducted using GraphPad Instat software.
Aβ 1 to 40 and 1 to 42 levels in hippocampal lysate were analyzed using the Aβ1-40 and Aβ1-42 ELISA kits from Invitrogen (# KHB3481 and # KHB3442, respectively). All kit reagents were brought to room temperature before use. Standards were prepared according to the manufacturer's guidelines and samples were diluted as follows; RIPA fractions were diluted 1:10 for both Aβ1-40 and Aβ1-42; and RIPA insoluble fractions were diluted 1:2,000 for Aβ1-40 and 1:5,000 for Aβ1-42. A total of 50 μl of Aβ peptide standards and samples were added in duplicate to 96-well plates pre-coated with mAb to the NH2 terminus region of Aβ. Plates were incubated at 4°C overnight and then 50 μl of Hu Aβ40 or Aβ42 detection antibody was added to each well except the chromogen blanks. […] Stop solution was then added at 100 μl to each well followed by reading the absorbance of each well at 450 nm. […] The concentrations of the samples were calculated from the standard curve and multiplied by the dilution factor.

C57BL/6J mice = test: Y-maze, scopolamine induced memory impairment; type: in vivo; conditions: scopolamine 1 mg/kg i.p.; J147 200 ppm, donepezil 20 ppm in food for two weeks
Method: A total of 60 male mice aged eight weeks were housed 4 per cage and were divided into five groups with 12 mice per group. Treatments were administered in the food (TestDiet® 5015, Richmond, IN, USA) for a period of two weeks before commencement of behavioral testing. […] Following two weeks of treatment, memory impairment was induced by intraperitoneal (i.p.) injection of scopolamine (1 mg/kg) 30 minutes prior to each of the following behavioral tests: Y-maze, probe trial of the water maze and contextual and cued fear conditioning. Mice were allowed to rest for two days between each behavior test. All mice received scopolamine except for one of the control groups, which received saline as a control. Mice were sacrificed 24 hours after the last behavioral test for tissue harvesting.
Spontaneous alternation, the tendency to alternate free choices in a Y-maze (three arms), is a model for studying short term working memory in mice. Mice were injected with 1 mg/kg of scopolamine or saline 30 minutes prior to testing. Then each mouse was placed in the center of the Y and arm entries were recorded by video camera and the order of entries were recorded for the first 15 entries. Spontaneous alternations are defined as consecutive triplets of different arm choices.

PC12 cells = test: neurite outgrowth of PC12 cells with HT22 growth conditioned medium; type: cell-based
Method: The HT22 cell line was used to make growth conditioned medium. HT22 is a nerve cell line derived from mouse brain and is widely used to study nerve cell physiology. To make HT22 growth conditioned medium, cells were grown in DMEM with 10% fetal calf serum. Then, semiconfluent cultures were washed three times with serum-free DMEM and cultured overnight in a reduced volume of DMEM in the presence or absence of 100 nM J147. The following day, the growth conditioned medium was collected and centrifuged at 10,000 × g to remove detached cells. To determine the effect of the conditioned medium on NGF-induced neurite outgrowth, PC12 cells were dissociated and plated on polyornithine-coated tissue culture dishes in the following conditions: 1) HT22 conditioned medium, 2) J147 treated HT22 conditioned medium, 3) DMEM alone plus J147, 4) DMEM plus NGF at 50 nanograms per ml, 5) J147 treated HT22 conditioned medium pre-incubated for one hour with 10 μg/ml anti-NGF and N2 supplement (Invitrogen). N2 supplement, which contains transferrin, was used in the presence of antibody to minimize the possibility that antibody protein non-specifically modified cell-substrate from adhesion and therefore neurite outgrowth. Phase contrast photographs were taken 24 hrs later.

[1] = pharmacokinetic profile in mice, per oral administration (Pharmaron); type: in vivo, CD1 Mice
Method: The pharmacokinetics of J147 in the mouse brain and plasma were evaluated using standard procedures. Blood and brain distribution of J147 following per oral (PO) administration was plotted for mice as a function of time (Figure 5). […] Additional de-risking and target identification screens were carried out at 10 μM J147 by various CROs (Table 2). […] All original data are available upon request.
Figure 5 Pharmacokinetic profile of J147 in mice. (A) The pharmacokinetic profile of J147 in mice was done by Pharmaron (Louisville, KY, USA). Plasma (B) and brain (C) distribution of J147 was plotted as a function of time following or per oral (PO) administration at 20 mg/kg.

COc1cccc(/C=N/N(C(=O)C(F)(F)F)c2ccc(C)cc2C)c1 [J147, (E)-N-(2,4-dimethylphenyl)-2,2,2-trifluoro-N'-(3methoxybenzyli-dene) acetohydrazide]
Aβ1-40 levels, RIPA insoluble fraction (Aβ1-40 and Aβ1-42): reduced
Aβ1-42 levels, RIPA insoluble fraction (Aβ1-40 and Aβ1-42): not altered
RIPA soluble Aβ1-40 (Aβ1-40 and Aβ1-42): decreased
RIPA soluble Aβ1-42 (Aβ1-40 and Aβ1-42): decreased
short-term working memory (spontaneous alternations, Y maze) (C57BL/6J mice): improve short-term working memory
neurite outgrowth, fresh DMEM plus J147 (PC12 cells; 100 nM J147 in fresh DMEM): did not
neurite outgrowth, conditioned medium from J147 treated HT22 cells (PC12 cells; HT22 cells incubated overnight with 100 nM J147, 24 hrs): promoted neurite outgrowth
brain levels ([1]; at 2 h after a single dose of 20 mg/kg in mice): about 600 nM
half life ([1]; brain, mice, PO): 2.5 h
bioavailability following oral administration ([1]; mice, PO): 28%
half life ([1]; plasma, mice, PO): 1.5 h
brain to blood ratio ([1]; single dose of 20 mg/kg in mice): approximately 0.5
